The record followed here is US9056835B2, “LPA2 receptor-specific benzoic acid derivatives” (University of Tennessee Research Foundation, priority 2012, dated 2015).

Holding throughout (type): cell-based, mouse
Test [1] concerns ERK1/2. The test is described as follows: Immunoblot, ERK1/2 activation. The note with it: 10 μM, 10 min. The procedure: (§1) To detect ligand-induced ERK1/2 activation, vector- and LPA2-transfected MEF cells were serum starved 3 h before exposure to 1 μM LPA, 1 μM OTP, 10 μM GRI977143, or vehicle for 10 min. For ERK1/2 activation and PARP-1 cleavage measurements, cells were harvested in 1× Laemmli sample buffer and separated using 12% Laemmli SDS-polyacrylamide gels. To assess Bax translocation, cell lysates were separated into cytosolic, mitochondrial, and nuclear fractions using the Cell Fractionation Kit-Standard (MitoSciences; Eugene, Oreg.). […] Samples were boiled for 5 min and loaded onto 12% SDS-polyacrylamide gels. Western blotting was carried out as previously described (Valentine et al., 2010). Primary antibodies against pERK1/2, PARP-1, Bax (Cell Signaling Technology; Beverly, Mass.), actin (Sigma-Aldrich), and anti-rabbit-horseradish peroxidase secondary antibodies (Promega) were used according to the instructions of the manufacturer.

In test [2] the test system is PARP-1. The test is described as follows: Immunoblot, PARP-1 cleavage. The note with it: 10 μM. Here is the method: (§2) Experiments were performed on vector- and LPA2-transduced MEF cells. To measure caspase 3, 7, 8, or 9 activity and DNA fragmentation, cells were plated in 48-well plates (2×10^4 cells/well). To detect PARP-1 cleavage and Bax translocation, 1.5×10^6 cells were plated in 10-cm dishes and cultured overnight in full growth medium. The next morning, the growth medium was replaced by serum-starvation medium and cells were pretreated for 1 h with LPA (1-10 μM), OTP (1-10 μM), GRI977143 (1-10 μM), or vehicle. Caspase activity, DNA fragmentation, PARP-1 cleavage, and Bax translocation were measured 5 h after incubation with 1.7 μM Adriamycin or 24 h after serum withdrawal.
as §1, with “Primary antibodies against pERK1/2, PARP-1, Bax (Cell Signaling Technology; Beverly, Mass.), actin (Sigma-Aldrich), and anti-rabbit-horseradish peroxidase secondary antibodies (Promega) were used according to the instructions of the manufacturer.” left out

The subject of test [3] is Bax. The test is described as follows: Immunoblot, Bax translocation. The note with it: 10 μM. Here is the method:
as §2, §1

Regarding `O=C(O)c1ccccc1SCCCN1C(=O)c2cccc3cccc(c23)C1=O` [GRI977143], the “increase in ERK1/2 activation” value in test [1] (LPA2-transduced MEF) is 9.6 fold. Moreover, the ERK1/2 basal activity entry in test [1] (vector-transduced MEF) is reported as “did not alter the basal activity”. The PARP-1 cleavage result is “reduced PARP-1 cleavage” in test [2] (LPA2-transduced MEF, Adriamycin or serum withdrawal) and “not observed” in test [2] (vector-transduced cells). Also, the “Bax translocation to the mitochondria” value in test [3] (LPA2-transduced MEF, Adriamycin) is recorded as “maintained a high level of Bax in the cytoplasm”. Also, the “cytosolic Bax level” value in test [3] (serum withdrawal model) is reported as “did not detect any change in cytosolic Bax level”. The Bax translocation entry in test [3] (vector-transduced MEF, Adriamycin) is on record as “failed to reduce Bax translocation”.
